“Also recorded” adds a separate entry of the source.
Legend:
[1] = system: SS RBCs; experiment: pO2-dependent degree of sickling in Hemox Analyzer; assay type: cell-based, human; settings: Hct 20%
Procedure: In a confirmatory study, a pO2 dependent degree of sickling of VZHE-039 at 1 and 2 mM doses, with Voxelotor as a control was performed using a Hemox analyzer. […] Oksenberg et al.reported similar observations with Voxelotor[28], where the compound lost its potent antisickling activity at low pO2 values.
The second study established pO2 dependent degree of sickling of VZHE-039, with Voxelotor as a control. Concurrently, blood samples, hematocrit 20%, were incubated without any drug (control) or with 1, or 2 mM VZHE-039 at 37 °C for 1 h. A second control sample was incubated with 2 mM Voxelotor. At conclusion, 100 uL aliquots of each suspension were mixed with 2.5 mL Hemox buffer (pH 7.4, supplemented with antifoam), and transferred into the sample chamber of the Hemox Analyzer. Compressed air was then flushed through the sample to ensure complete oxygenation (at 150 mmHg). Nitrogen gas was then introduced into the sample chamber, and 50 uL aliquots were obtained and fixed at defined pO2 values. At conclusion, all fixed samples were subjected to microscopic analysis for their degree of sickling, and results were plotted using Prism Graph Pad software. The experiments were conducted in three replicates on different days, and mean and standard deviation values are reported.

[2] = molecular target: T1, CYP1A2 (Homo sapiens, UniProt P05177); experiment: In vitro CYP inhibition, pooled human liver microsomes
T1 sequence (P05177 1-516): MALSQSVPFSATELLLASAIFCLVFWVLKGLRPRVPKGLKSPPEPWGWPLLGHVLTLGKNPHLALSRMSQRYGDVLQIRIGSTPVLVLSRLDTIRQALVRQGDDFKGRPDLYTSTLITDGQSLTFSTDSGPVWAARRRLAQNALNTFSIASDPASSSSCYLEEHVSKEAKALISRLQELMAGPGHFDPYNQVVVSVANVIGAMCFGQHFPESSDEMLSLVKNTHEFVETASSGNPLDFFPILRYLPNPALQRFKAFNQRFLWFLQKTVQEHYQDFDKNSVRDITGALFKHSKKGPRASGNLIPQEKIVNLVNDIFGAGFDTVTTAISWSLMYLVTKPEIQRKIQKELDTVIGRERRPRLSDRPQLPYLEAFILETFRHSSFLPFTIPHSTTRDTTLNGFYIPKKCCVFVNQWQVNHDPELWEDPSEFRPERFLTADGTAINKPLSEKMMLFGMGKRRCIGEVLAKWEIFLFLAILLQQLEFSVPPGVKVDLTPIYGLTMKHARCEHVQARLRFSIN
Procedure: Next, we tested VZHE-039 at concentrations of 0.1 to 100 µM, considered to be biologically relevant unbound plasma concentrations, for possible CYP inhibition using pooled human liver microsomes and isozyme-specific probe substrates (CYP1A2, CYP2C8, CYP2C9, CYP2C19, CYP2D6, CYP3A4, CYP2B6)[55].
VZHE-039 was studied for its inhibitory potential of seven major drug metabolizing human cytochrome P450 (CYP) enzymes (CYP1A2, CYP2C8, CYP2C9, CYP2C19, CYP2D6, CYP3A4, CYP2B6) using pooled human liver microsomes as published previously[26],[55]. The probe substrates include tacrine (CYP1A2), amodiaquine (CYP2C8), tolbutamide (CYP2C9), mephenytoin (CYP2C19), dextromethorphan (CYP2D6), midazolam (CYP3A4), testosterone (CYP3A4), and bupropion (CYP2B6). […] Assay conditions were optimized for each human cytochrome P450 substrate. The optimized reaction mixtures (200 μL) contained a final concentration of 0.2–0.5 mg/mL pooled human liver microsomes, 2 mM NADPH in 100 mM potassium phosphate, pH 7.4 buffer with 5 mM MgCl2, and VZHE-039 concentration of 0.1 to 100 µM. […] Effect of VZHE-039 on formation of the respective probe substrate metabolites (velnacrine, N‐desethylamodiaquine, 4-hydroxytolbutamide, 4′-hydroxymephenytoin, dextrophan, 1′-hydroxymidazolam, and 6β-hydroxtestosterone and hydroxybupropion) were determined using LC–MS/MS.

SMILES: O=Cc1c(O)cccc1OCc1cccc(CO)n1 [VZHE-039, 2-((6-(Hydroxymethyl)pyridin-2-yl)methoxy)-6-hydroxybenzaldehyde]
- pO2-dependent sickling inhibition (in words) ([1]; 1 mM): delay in initiation of sickling, as well as reduction in the total number of sickled cells; also recorded: significant delay in initiation of sickling
- pO2-dependent sickling inhibition (in words) ([1]; 2 mM): complete inhibition of sickling at the lowest recorded pO2; also recorded: complete sickling inhibition at all pO2
- IC50 [2]: 4.7 µM
